20 molecules from patent US8471004B2, “Bicyclic compounds” (Hoffman-La Roche Inc., priority 2009, dated 2013) can be followed below.

This test addresses T1, human chemokine receptor 2 isoform B (Homo sapiens, UniProt P41597).
T1 construct: host or cells: CHOK1-CCR2B-A5 (CHO-K1)
T1 sequence (P41597 1-360 isoform P41597-2): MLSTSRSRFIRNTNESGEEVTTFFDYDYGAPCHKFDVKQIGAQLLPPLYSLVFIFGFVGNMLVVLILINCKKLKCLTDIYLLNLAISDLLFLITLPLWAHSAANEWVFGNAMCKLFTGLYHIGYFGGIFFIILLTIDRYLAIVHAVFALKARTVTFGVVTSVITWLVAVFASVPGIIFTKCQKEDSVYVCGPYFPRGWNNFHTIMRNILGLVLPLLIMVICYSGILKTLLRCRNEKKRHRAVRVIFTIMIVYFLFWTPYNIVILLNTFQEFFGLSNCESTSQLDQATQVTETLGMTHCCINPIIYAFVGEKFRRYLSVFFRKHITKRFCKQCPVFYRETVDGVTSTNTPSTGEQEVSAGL
As to the kind of experiment: Calcium mobilization assay (CHOK1-CCR2B-A5 cells, FLIPR, MCP-1 stimulated). The test is classed as cell-based. To be noted: Ca mobilisation assay for CCR2, antagonist activity, 50% inhibition of specific calcium increases after 20 nM MCP-1. As to the method: CHOK1-CCR2B-A5 cells (from Euroscreen) stably overexpressing the human chemokine receptor 2 isoform B were cultured in Nutrient Hams F12 medium supplemented with 5% FBS, 100 U/ml penicillin, 100 μg/ml streptomycin, 400 μg/ml G418 and 5 μg/ml puromycin.
For the assay cells were grown overnight in 384-well black clear flat bottom polystyrene plates (Costar) at 37° C. at 5% CO2. After washing with DMEM, 20 mM Hepes, 2.5 mM probenecid, 0.1% BSA (DMEM assay buffer) cells were loaded with 4 μM Fluo-4 in the same DMEM assay buffer for 2 hours at 30° C. Excess dye was removed and cells were washed with DMEM assay buffer. 384-well compound plates were prepared with DMEM assay buffer/0.5% DMSO with or without various concentrations of test compounds. Usually compounds were tested for agonist and antagonist activity.
Test compounds were added to the assay plate and agonist activity was monitored as fluorescence for 80 seconds with a FLIPR (488 nm excitation; 510-570 nm emission; Molecular Devices). After 20-30 min. of incubation at 30° C., 20 nM MCP-1 (R&D; Roche) was added and fluorescence was monitored again for 80 seconds. Increases in intracellular calcium are reported as maximum fluorescence after agonist exposure minus basal fluorescence before exposure. Antagonist activity is indicated as inhibitor concentration required for 50% inhibition of specific calcium increases.
(In general: Calcium flux is commonly read through the fluorescence of an indicator in the cells.)
With `C[C@H]1C(=O)N2[C@@H](CCC(=O)N3CCC4(CC4)[C@H](O)C3)CO[C@H]2CN1C(=O)Nc1ccc(Cl)c(Cl)c1` [Example 36, (3S,6S,8aS)-3-[3-((S)-4-Hydroxy-6-aza-spiro[2.5]oct-6-yl)-3-oxo-propyl]-6-methyl-5-oxo-hexahydro-oxazolo[3,2-a]pyrazine-7-carboxylic acid (3,4-dichloro-phenyl)-amide], the half-inhibitory concentration (IC50) (in general, the concentration that gives 50% inhibition) amounted to 0.0093 µM. `C[C@H]1C(=O)N2[C@@H](CCCN3CCC4(CC4)C(F)(F)C3)COC[C@H]2CN1C(=O)Nc1ccc(C(F)(F)F)c(Cl)c1` [Example 61, (4S,7S,9aR)—N-(3-chloro-4-(trifluoromethyl)phenyl)-4-(3-(4,4-difluoro-6-azaspiro[2.5]octan-6-yl)propyl)-7-methyl-6-oxohexahydropyrazino[2,1-c][1,4]oxazine-8(1H)-carboxamide]: the IC50 was 0.0341 µM. For the molecule `C[C@H]1C(=O)N2[C@@H](CCC(=O)N3CCC4(CC4)[C@H](O)C3)COC[C@H]2CN1C(=O)Nc1ccc(Cl)c(Cl)c1` [Example 51, (4S,7S,9aR)-4-[3-((S)-4-Hydroxy-6-aza-spiro[2.5]oct-6-yl)-3-oxo-propyl]-7-methyl-6-oxo-hexahydro-pyrazino[2,1-c][1,4]oxazine-8-carboxylic acid (3,4-dichloro-phenyl)-amide], the IC50 stood at 0.0869 µM.

As to `C[C@H]1C(=O)N2[C@@H](CCCN3CCC4(CC4)[C@H](O)C3)CO[C@@H]2CN1C(=O)Nc1ccc(Cl)c(Cl)c1` [Example 18, (3S,6S,8aR)-3-[3-((S)-4-hydroxy-6-aza-spiro[2.5]oct-6-yl)-propyl]-6-methyl-5-oxo-hexahydro-oxazolo[3,2-a]pyrazine-7-carboxylic acid (3,4-dichloro-phenyl)-amide], the half-maximal inhibitory concentration (IC50) worked out at 0.0102 µM.

`C[C@H]1C(=O)N2[C@@H](CCN3CCC4(CC4)[C@H](O)C3)CO[C@H]2CN1C(=O)Nc1cccc(C(F)(F)F)c1` [Example 8, (3S,6S,8aS)-3-[2-((S)-4-Hydroxy-6-aza-spiro[2.5]oct-6-yl)-ethyl]-6-methyl-5-oxo-hexahydro-oxazolo[3,2-a]pyrazine-7-carboxylic acid (3-trifluoromethyl-phenyl)-amide]: the half-inhibitory concentration (IC50) was determined as 0.146 µM. `O=C(Nc1ccc(Cl)c(Cl)c1)N1CCC(=O)N2[C@@H](CCN3CCC4(CC4)[C@H](O)C3)CC[C@H]2C1` [Example 49, (7R,9aS)-7-[2-((S)-4-Hydroxy-6-aza-spiro[2.5]oct-6-yl)-ethyl]-5-oxo-hexahydro-pyrrolo[1,2-a][1,4]diazepine-2-carboxylic acid (3,4-dichloro-phenyl)-amide]: the half-maximal inhibitory concentration (IC50) was determined as 0.144 µM. As to `C[C@H]1C(=O)N2[C@@H](CCCN3CCC4(CC4)[C@H](O)C3)CO[C@@H]2CN1C(=O)Nc1cccc(Cl)c1` [Example 20, (3S,6S,8aR)-3-[3-((S)-4-hydroxy-6-aza-spiro[2.5]oct-6-yl)-propyl]-6-methyl-5-oxo-hexahydro-oxazolo[3,2-a]pyrazine-7-carboxylic acid (3-chloro-phenyl)-amide], the IC50 came to 0.177 µM. Regarding `C[C@H]1C(=O)N2[C@@H](CCC(=O)N3CCC4(CC4)[C@H](O)C3)CCC[C@H]2CN1C(=O)Nc1ccc(Cl)c(Cl)c1` [Example 63, (3S,6R,9aS)-6-[3-((S)-4-Hydroxy-6-aza-spiro[2.5]oct-6-yl)-3-oxo-propyl]-3-methyl-4-oxo-octahydro-pyrido[1,2-a]pyrazine-2-carboxylic acid (3,4-dichloro-phenyl)-amide], the half-inhibitory concentration (IC50) is 0.0108 µM. For `C[C@H]1C(=O)N2[C@@H](CCCN3CCC4(CC4)[C@H](O)C3)COC2(C)CN1C(=O)Nc1ccc(C(F)(F)F)c(Cl)c1` (stereo partly drawn) [Example 13, (3S,6S)-3-[3-((S)-4-Hydroxy-6-aza-spiro[2.5]oct-6-yl)-propyl]-6,8a-dimethyl-5-oxo-hexahydro-oxazolo[3,2-a]pyrazine-7-carboxylic acid (3-chloro-4-trifluoromethyl-phenyl)-amide], the half-inhibitory concentration (IC50) was found to be 0.0127 µM. For `C[C@H]1C(=O)N2[C@@H](CCN3CCC4(CC4)[C@H](O)C3)CO[C@@H]2CN1C(=O)Nc1ccc(Cl)c(Cl)c1` [Example 2, (3S,6S,8aR)-3-[2-((S)-4-hydroxy-6-aza-spiro[2.5]oct-6-yl)-ethyl]-6-methyl-5-oxo-hexahydro-oxazolo[3,2-a]pyrazine-7-carboxylic acid (3,4-dichloro-phenyl)-amide] the value was 0.0022 µM. With `C[C@H]1C(=O)N2[C@@H](CCC(=O)N3CCC4(CC4)[C@H](O)C3)CCC[C@H]2CN1C(=O)/C=C/c1ccc(F)c(Cl)c1` [Example 62, (3S,6R,9aS)-2-[(E)-3-(3-Chloro-4-fluoro-phenyl)-acryloyl]-6-[3-((S)-4-hydroxy-6-aza-spiro[2.5]oct-6-yl)-3-oxo-propyl]-3-methyl-octahydro-pyrido[1,2-a]pyrazin-4-one], the IC50 came to 0.221 µM. The same measure for `C[C@H]1C(=O)N2C(CN1C(=O)Nc1ccc(Cl)c(Cl)c1)OC[C@@H]2CCCN1CCC2(CC2)[C@H](O)C1` (stereo partly drawn) [Example 16, (3S,6S)-3-[3-((S)-4-Hydroxy-6-aza-spiro[2.5]oct-6-yl)-propyl]-6-methyl-5-oxo-hexahydro-oxazolo[3,2-a]pyrazine-7-carboxylic acid (3,4-dichloro-phenyl)-amide]: 0.0074 µM; for `C[C@H]1C(=O)N2[C@@H](CCC(=O)N3CCC4(CC4)[C@H](O)C3)CC[C@H]2CN1C(=O)Nc1ccc(Cl)c(Cl)c1` [Example 42, (3S,6R,8aS)-6-[3-((S)-4-Hydroxy-6-aza-spiro[2.5]oct-6-yl)-3-oxo-propyl]-3-methyl-4-oxo-hexahydro-pyrrolo[1,2-a]pyrazine-2-carboxylic acid (3,4-dichloro-phenyl)-amide]: 0.0404 µM; for `C[C@H]1C(=O)N2[C@@H](CCN3CCC4(CC4)[C@H](O)C3)CO[C@@H]2CN1C(=O)Nc1cccc(C(F)(F)F)c1` [Example 9, (3S,6S,8aR)-3-[2-((S)-4-hydroxy-6-aza-spiro[2.5]oct-6-yl)-ethyl]-6-methyl-5-oxo-hexahydro-oxazolo[3,2-a]pyrazine-7-carboxylic acid (3-trifluoromethyl-phenyl)-amide]: 0.0689 µM. Take `C[C@H]1C(=O)N2[C@@H](CCCN3CCC4(CC4)C(F)(F)C3)COC[C@H]2CN1C(=O)Nc1ccc(Cl)c(Cl)c1` [Example 60, (4S,7S,9aR)—N-(3,4-dichlorophenyl)-4-(3-(4,4-difluoro-6-azaspiro[2.5]octan-6-yl)propyl)-7-methyl-6-oxohexahydropyrazino[2,1-c][1,4]oxazine-8(1H)-carboxamide]: the IC50 came out at 0.0482 µM. Consider `C[C@H]1C(=O)N2[C@@H](CCC(=O)N3CCC4(CC4)[C@H](O)C3)COC2(C)CN1C(=O)Nc1ccc(C(F)(F)F)c(Cl)c1` (stereo partly drawn) [Example 37, (3S,6S)-3-[3-((S)-4-Hydroxy-6-aza-spiro[2.5]oct-6-yl)-3-oxo-propyl]-6,8a-dimethyl-5-oxo-hexahydro-oxazolo[3,2-a]pyrazine-7-carboxylic acid (3-chloro-4-trifluoromethyl-phenyl)-amide], for which the concentration for half-maximal inhibition (IC50) is 0.36 µM.

With `C[C@H]1C(=O)N2[C@@H](CCCN3CCC(F)(F)C3)CC[C@H]2CN1C(=O)Nc1ccc(Cl)c(Cl)c1` [Example 45, (3S,6S,8aS)-6-[3-(3,3-Difluoro-pyrrolidin-1-yl)-propyl]-3-methyl-4-oxo-hexahydro-pyrrolo[1,2-a]pyrazine-2-carboxylic acid (3,4-dichloro-phenyl)-amide], the half-inhibitory concentration (IC50) is 0.2 µM. On to `C[C@H]1C(=O)N2[C@@H](CCCN3CCC4(CC4)[C@H](O)C3)CO[C@@]2(C)CN1C(=O)Nc1ccc(Cl)c(Cl)c1` [Example 21, (3S,6S,8aS)-3-[3-((S)-4-Hydroxy-6-aza-spiro[2.5]oct-6-yl)-propyl]-6,8a-dimethyl-5-oxo-hexahydro-oxazolo[3,2-a]pyrazine-7-carboxylic acid (3,4-dichloro-phenyl)-amide], for which the half-inhibitory concentration (IC50) turned out to be 0.0038 µM. With `C[C@H]1C(=O)N2[C@@H](CCN3CCC(F)(F)CC3)COC[C@H]2CN1C(=O)Nc1ccc(Cl)c(Cl)c1` [Example 56, (4S,7S,9aR)—N-(3,4-dichlorophenyl)-4-(2-(4,4-difluoropiperidin-1-yl)ethyl)-7-methyl-6-oxohexahydropyrazino[2,1-c][1,4]oxazine-8(1H)-carboxamide], the 50% inhibitory concentration (IC50) turned out to be 0.081 µM.

Take `C[C@H]1C(=O)N2[C@@H](CCN3CCS(=O)(=O)CC3)COC[C@H]2CN1C(=O)Nc1ccc(C(F)(F)F)c(Cl)c1` [Example 59, (4S,7S,9aR)-4-[2-(1,1-Dioxo-6-thiomorpholin-4-yl)-ethyl]-7-methyl-6-oxo-hexahydro-pyrazino[2,1-c][1,4]oxazine-8-carboxylic acid (3-chloro-4-trifluoromethyl-phenyl)-amide]: the IC50 stood at 0.189 µM.
